PubChem BioAssay AID179 (DTP/NCI, 2004)
Calls of active or inactive are those of the source.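 Rule for the calls: active = compounds giving half or more protection of infected cells from virus-caused growth loss, again on retest; inactive = the rest.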 Where a SMILES comes first, the peptide text is derived from it. [ ]: non-standard residue; d: D form. The star is where a group is joined. ξ: configuration not given here. ξD = NC(CC(=O)O)C(=O)O; Ac3c = NC1(C(=O)O)CC1; Boc = CC(C)(C)OC(=O)*; OBn = c1ccc(CO*)cc1

Test system: CEM cells HIV-1 protection, formazan growth assay
Assay: NCI AIDS Antiviral Assay
Conditions: for IC50: measured here: growth of uninfected CEM cells
Procedure, shortened: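 Category rules: moderately active means at least 50% protection on retest, and confirmed active means 100% protection reproducibly. The underlying data came from a formazan growth assay in HIV-1-infected CEM cells.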

| Compound | EC50 | IC50 | outcome |
| --- | --- | --- | --- |
| CCOC(=O)c1ccc(-c2cccs2)[nH]1 | > 200 µM | 38.9 µM | – |
| CC(C)=CCOC(=O)C(C)=[N+]=[N-] | > 200 µM | 170 µM | – |
| Cc1nc(N)nc(N)c1N1CCN(c2ccc(N)cc2)CC1 | > 200 µM | 2.82 µM | – |
| CC1Cc2c(N)nc(NN)nc2NC1=O (stereo not drawn) | – | – | inactive |
| C/C(Cl)=N/OC(=O)Nc1ccc(S(N)(=O)=O)c(C)c1 | > 20 µM | 8.71 µM | – |
| CC(=O)Oc1ccc(-c2oc3c([C@H]4C=C(C)CC(c5ccc(OC(C)=O)cc5OC(C)=O)[C@@H]4C(=O)c4ccc(OC(C)=O)c(CC=C(C)C)c4O)c(OC(C)=O)cc(O)c3c(=O)c2CC=C(C)C)c(OC(C)=O)c1 (stereo partly drawn) | > 5.13 µM | > 5.13 µM | – |
| COC(=O)C(=O)C(C(=O)OC)C(=O)C(=O)Nc1cc(Cl)c(C)cc1S(=O)(=O)O (stereo not drawn) | > 575 µM | > 575 µM | – |
| OCCOCC#CCOCCO | > 200 µM | > 200 µM | – |
| O=c1[nH]c(-c2ccccc2)nc2c1OCN(Cc1ccccc1)C2 | > 115 µM | 28.8 µM | – |
| COC(=O)C1(NC(=O)C(CC(=O)OCc2ccccc2)NC(=O)OC(C)(C)C)CC1 (stereo not drawn) (Boc-[ξD](OBn)-[Ac3c]-OMe) | > 200 µM | > 200 µM | – |
| CCCCCCC(=O)COP(=O)(OCC(=O)CCCCCC)OCC1C=CC(n2cc(C)c(=O)[nH]c2=O)O1 (stereo not drawn) | 0.562 µM | 174 µM | – |
| CC1CCN(C(C)C)P(=S)(Cc2ccccc2)O1 (stereo not drawn) | > 200 µM | 123 µM | – |
| CC(C(=O)O)c1ccc(C(=O)c2cccs2)cc1 (stereo not drawn) | > 200 µM | > 200 µM | – |
| Cc1cc(C)nc(NS(=O)(=O)c2ccc(NC(=O)c3ccccc3SC(=O)CCCC[n+]3ccccc3)cc2)n1 | 17 µM | 51.3 µM | – |
| CS/C(C)=N/OC(=O)NCCCCNc1ccc(N=[N+]=[N-])cc1 | > 148 µM | 34.7 µM | – |
| Cn1c(-c2ccc(Br)cc2)cc2[nH]c(=S)nc(N)c2c1=O | > 100 µM | > 100 µM | – |
| N#Cc1ccc(C2OCC3CC=CCC3CO2)cc1 (stereo not drawn) | > 53.7 µM | > 53.7 µM | – |
| O=C(/C=C/c1ccc([N+](=O)[O-])cc1)c1nc2ccccc2[nH]1 | > 200 µM | 4.37 µM | – |
| Cc1c2ccccc2nc(CS(=O)(=O)c2ccccc2)[n+]1[O-] | > 200 µM | 12.6 µM | – |
| O=C1CCCCc2cccc(O)c21 | > 200 µM | > 200 µM | – |
| C=CCc1cc(/C(CC)=C(/CC)c2ccc(OCCN(CC)CC)c(CC=C)c2)ccc1OCCN(CC)CC | > 200 µM | 8.32 µM | – |
| O=C(Nc1nc2ccccc2n1Cc1ccccc1)NC12CC3CC(CC(C3)C1)C2 | > 200 µM | > 200 µM | – |

| Compound | EC50 | IC50 | outcome |
| --- | --- | --- | --- |
| COc1ccc([C@@H]2ON(C)[C@H]3CN(C)C(=O)[C@@H]23)cc1 | > 200 µM | > 200 µM | – |
| O=c1[nH]c(=O)n(C2OC(CO)CC2F)cc1Cl (stereo not drawn) | > 186 µM | > 186 µM | – |
| O=Nc1ccc(Br)cc1 | – | – | inactive |
| O=c1[nH]c2ccccc2nc1/C=C(\O)c1ccccc1O | > 13.5 µM | > 13.5 µM | – |
| O=c1c(O)c(-c2ccc(Cl)cc2)oc2ccccc12 | > 200 µM | 4.07 µM | – |
| CC1(C)C(=O)/C(=C/c2ccccc2)C(C)(C)C1(C)C | – | – | inactive |
| Cc1ccc(-n2c3nc(=O)n(C)c(=O)c-3cc3c(OCc4ccccc4)cccc32)cc1 | > 19.5 µM | > 19.5 µM | – |
| Cc1nn(C)c2nc3ccc(Cl)cc3c(-c3ccccc3)c12 | > 200 µM | > 200 µM | – |
| Cc1ccc(C(=O)O)c(CC2Cc3c(C)cccc3C2=O)c1 (stereo not drawn) | > 200 µM | 155 µM | – |
| COc1ccc2c(c1)-c1[nH]c3ccccc3c1CC2 | > 200 µM | 12 µM | – |
| O=C1CC(NC(=O)C(F)(F)F)c2c1csc2Br (stereo not drawn) | > 200 µM | 115 µM | – |
| COc1ccc(/C(Br)=C2\OC(=O)c3ccccc32)cc1 | > 200 µM | > 200 µM | – |
| N#CCCN(CCC#N)c1ccc(/C=C2\CC(O)(c3ccccc3)N(c3ccc(Cl)cc3)C2=O)cc1 (stereo not drawn) | > 5.5 µM | > 5.5 µM | – |
| Clc1ccc(C2SCc3nc4ccccc4n32)cc1 (stereo not drawn) | – | – | inactive |
| CC(=O)Oc1cccc2c1[nH]c(=O)c1c(OC(C)=O)c3c(cc12)OCO3 | – | – | inactive |
| COC(=O)c1c(C(=O)OC)c2cc(C(=O)c3ccccc3)ccn2c1Cl | > 26.9 µM | > 26.9 µM | – |
| Cc1cc(N=Nc2ccc(NC(=O)c3ccc(N)cc3)cc2C)ccc1N=Nc1ccc2c(O)c(N=Nc3ccc(S(=O)(=O)O)cc3)c(S(=O)(=O)O)cc2c1 | 15.1 µM | 105 µM | – |
| CCC(C)(C(=O)O)C(=O)O | > 200 µM | > 200 µM | – |
| CC(NC(=O)C(Cc1ccc(OC(=O)c2ccccc2)cc1)NC(=O)OC(C)(C)C)C(=O)NCC(=O)NC(Cc1ccccc1)C(=O)NN (stereo not drawn) | > 200 µM | 11.7 µM | – |
| CCCN(CCCCC(NC(C)=O)C(=O)NCc1ccccc1)C(=O)N(C)N=O (stereo not drawn) | > 89.1 µM | > 89.1 µM | – |
| CS(=O)(=O)NNS(=O)(=O)c1ccc(F)cc1 | > 251 µM | > 251 µM | – |
| O=C(CC1(O)C(=O)Nc2c(Cl)cc(Cl)cc21)c1ccc(Br)cc1Br (stereo not drawn) | > 51.3 µM | 44.7 µM | – |

| Compound | EC50 | IC50 | outcome |
| --- | --- | --- | --- |
| Cc1cc(C)c(C(=O)c2ccccc2C(=O)O)c(C)c1 | > 200 µM | > 200 µM | – |
| N=C1N(c2ccccc2)C(=O)C23CCCC2C13N1CCOCC1 (stereo not drawn) | > 219 µM | > 219 µM | – |
| CSC(=Nc1ccccc1)c1c(C)[nH]n(-c2ccccc2)c1=O | > 200 µM | 126 µM | – |
| CCOP(=S)(N/N=C1/CCCC(C)C1)OCC (stereo not drawn) | > 200 µM | 102 µM | – |
| CCOC(=O)C1Cc2c([nH]c(=O)[nH]c2=O)OC1c1ccc([N+](=O)[O-])cc1 (stereo not drawn) | > 363 µM | > 363 µM | – |
| NCCN=C(Nc1ccccc1)Nc1ccccc1 | > 200 µM | 29.5 µM | – |
| CNC(=O)c1ccc(NC(=O)Nc2cccc(C3=NCCN3)c2)cc1NC(=O)Nc1cccc(C2=NCCN2)c1 | 28.2 µM | 178 µM | – |
| O=C(Nc1ccccc1)OCCN=c1c2ccccc2ccc2ccccc12 | 17 µM | 24.5 µM | – |
| C[N+](C)([O-])CCNc1c2ccccc2nc2cccc([N+](=O)[O-])c12 | > 20 µM | 0.355 µM | – |
| COc1ccc(CC2COC(=O)[C@@H]2Cc2cccc(O)c2)cc1OC (stereo partly drawn) | > 200 µM | 155 µM | – |
| O=C1C(Cl)N(c2ccc(Cl)cc2)C1c1c[nH]c2ccccc12 (stereo not drawn) | > 204 µM | 5.13 µM | – |
| Cc1c(Cc2ccccc2)n(C(C)OCCN(O)C(N)=O)c(=O)[nH]c1=O (stereo not drawn) | > 200 µM | > 200 µM | – |
| Cc1cc2c(c3nocc13)C(=O)c1ccccc1C2=O | – | – | inactive |
| COc1ccc(-c2cc(-c3ccccc3)c(C#N)c(=O)n2C2OC(CO)C(O)C(O)C2O)cc1 (stereo not drawn) | > 21.4 µM | > 21.4 µM | – |
| CC(=O)NC(CCCN)C(=O)NCc1ccccc1 (stereo not drawn) | > 955 µM | > 955 µM | – |
| COC(=O)C1CC(c2ccc(Cl)cc2)=NO1 (stereo not drawn) | > 282 µM | > 282 µM | – |
| COc1cc(C2SC(N)=Nc3c2c(C)nn3C(=O)Cc2ccccc2)cc(OC)c1OC (stereo not drawn) | 49 µM | > 200 µM | – |
| O=c1[nH]c2ccccc2c2oc3ccccc3c12 | > 200 µM | > 200 µM | – |
| CC1(C)O[C@@H]2[C@@H](COC(=O)c3ccccc3)C[C@@H](C#N)[C@@H]2O1 | > 200 µM | > 200 µM | – |
| C=CCC1(C(=O)OC)CCC/C(=N\O)C1 (stereo not drawn) | > 64.6 µM | > 64.6 µM | – |
| OC1(c2ccccc2)CC2CCC(C1)N2CCCC(O)(c1ccccc1)c1ccccc1 (stereo not drawn) | > 200 µM | 28.8 µM | – |
| C=CC1(C)CC(=O)C2(O)C(O1)C(OC(C)=O)C(OC(C)=O)C1C2C(OC(C)=O)CCC1(C)C (stereo not drawn) | > 26.9 µM | > 26.9 µM | – |

| Compound | EC50 | IC50 | outcome |
| --- | --- | --- | --- |
| Cc1cc(C)nc(NS(=O)(=O)c2ccc(NNc3c4ccccc4nc4c(C(=O)Nc5ccc(S(=O)(=O)Nc6cc(C)on6)cc5)cccc34)cc2)n1 | > 200 µM | 34.7 µM | – |
| CC(=O)C1(C(=O)C(=[N+]=[N-])S(=O)(=O)c2ccccc2)CC1 | > 851 µM | 8.32 µM | – |
| COCn1c2ccc(OC(C)=O)cc2c2c(=O)oc(C)nc21 | > 200 µM | 170 µM | – |
| CC(C)(C)OC(=O)CC(NC(=O)OC(C)(C)C)C(=O)NC(C(=O)O)C(O)c1ccccc1 (stereo not drawn) | > 200 µM | 93.3 µM | – |
| Nc1nc(Cl)c(N)c(NCC2(CO)CCC2)n1 | > 200 µM | 115 µM | – |
| O=c1[nH]c(N2CCOCC2)nc2cc3ccccc3cc12 | > 155 µM | > 155 µM | – |
| COc1ccc(N=NC(=O)NC(CC(C)C)C(=O)NC(CC(C)C)C(=O)O)cc1 (stereo not drawn) | > 200 µM | 7.24 µM | – |
| O=C1CCCC2=C1CC1=C(CCCC1=O)N2c1ccccc1C(=O)O | > 200 µM | > 200 µM | – |
| Cc1cc(N=Nc2cc(S(=O)(=O)O)c(N)cc2N)ccc1N=Nc1ccc2cc(S(=O)(=O)O)cc(S(=O)(=O)O)c2c1 | – | – | inactive |
| COc1ccc(-c2nc3ccccc3s2)cc1S(=O)(=O)O | > 105 µM | 95.5 µM | – |
| COc1ccc(C2C3COc4ccccc4C3=NN2c2ccccc2)cc1 (stereo not drawn) | > 200 µM | > 200 µM | – |
| COC(=O)c1ccc(CCc2cc(O)ccc2O)cc1 | > 200 µM | 4.9 µM | – |
| COc1ccccc1NC(=O)/C(=C\N1C(=O)/C(=C/c2cc(OC)c(OC)c(OC)c2)SC1=S)C(C)=O | > 100 µM | 12.9 µM | – |
| COC(=O)c1[nH]c(=O)c(C#N)c(C(=O)OC)c1C(=O)/C=C/c1ccccc1 | > 51.3 µM | > 51.3 µM | – |
| CC/C=C\C/C=C\C/C=C\CCCCCCCC(=O)OCC(COC1OC(CS(=O)(=O)O)C(O)C(O)C1O)OC(=O)CCCCCCCCCCCCCCC (stereo not drawn) | > 10 µM | 5.62 µM | – |
| CN(C)CCCNC(=O)c1nc(NC(=O)c2nc(NC(=O)c3nc(NC(=O)c4ccc(C(=O)Nc5cn(C)c(C(=O)Nc6cn(C)c(C(=O)Nc7cn(C)c(C(=O)NCCCN(C)C)n7)n6)n5)cc4)cn3C)cn2C)cn1C | > 50.1 µM | > 50.1 µM | – |
| NC(=O)c1cccn1Cc1ccccc1SSc1ccccc1Cn1cccc1C(N)=O | > 15.8 µM | 7.08 µM | – |
| Cn1c(COC(=O)Nc2ccccc2)c(COC(=O)Nc2ccccc2)c2ccc3ccccc3c21 | > 200 µM | 0.339 µM | – |
| CC[C@@H]1CC[C@@H]2[C@H](CC[C@]3(C)[C@@H](OC(C)=O)CC[C@@H]23)[C@H]1C(=O)OC | > 200 µM | 24.5 µM | – |
